According to ChEMBL document CHEMBL1152855, “Regioselective synthesis of dispiro[1H-indene-2,3'-pyrrolidine-2',3''-[3H]indole]-1,2''(1''H)-diones of potential anti-tumor properties” (2009):

Key:
Type in all cases: functional
HOP-62 = assay: Growth inhibition of human HOP62 cells at 10 uM after 48 hrs by sulforhodamine B assay; conditions: HOP-62, 48 h, values are per cent of control
HOP-92 = assay: Growth inhibition of human HOP92 cells at 10 uM after 48 hrs by sulforhodamine B assay; conditions: HOP-92, 48 h, read-out: GI
NCI-H322M = assay: Growth inhibition of human NCI-H322M cells at 10 uM after 48 hrs by sulforhodamine B assay; conditions: values are per cent of control
NCI-H460 = assay: Growth inhibition of human NCI-H460 cells at 10 uM after 48 hrs by sulforhodamine B assay; conditions: NCI-H460, 48 h, values are per cent of control
NCI-H522 = assay: Growth inhibition of human NCI-H522 cells at 10 uM after 48 hrs by sulforhodamine B assay; conditions: NCI-H522, 48 h, values are per cent of control
HCT-116 = assay: Growth inhibition of human HCT116 cells at 10 uM after 48 hrs by sulforhodamine B assay; conditions: HCT-116, 48 h, values are per cent of control
HCT-15 = assay: Growth inhibition of human HCT15 cells at 10 uM after 48 hrs by sulforhodamine B assay; conditions: HCT-15, 48 h, values are per cent of control
HT-29 = assay: Growth inhibition of human HT-29 cells at 10 uM after 48 hrs by sulforhodamine B assay; conditions: HT-29, 48 h, values are per cent of control
KM12 = assay: Growth inhibition of human KM12 cells at 10 uM after 48 hrs by sulforhodamine B assay; conditions: KM12, 48 h, values are per cent of control
[1] = Growth inhibition of human Hs 578T cells at 10 uM after 48 hrs by sulforhodamine B assay; conditions: values are per cent of control
MCF7 = assay: Growth inhibition of human MCF7 cells at 10 uM after 48 hrs by sulforhodamine B assay; conditions: MCF7, 48 h, values are per cent of control
MDA-MB-231 = assay: Growth inhibition of human MDA-MB-231 cells at 10 uM after 48 hrs by sulforhodamine B assay; conditions: MDA-MB-231, 48 h, values are per cent of control
MDA-MB-435 = assay: Growth inhibition of human MDA-MB-435 cells at 10 uM after 48 hrs by sulforhodamine B assay; conditions: MDA-MB-435, 48 h, values are per cent of control
OVCAR-4 = assay: Growth inhibition of human OVCAR4 cells at 10 uM after 48 hrs by sulforhodamine B assay; conditions: OVCAR-4, 48 h, values are per cent of control
OVCAR-5 = assay: Growth inhibition of human OVCAR5 cells at 10 uM after 48 hrs by sulforhodamine B assay; conditions: OVCAR-5, 48 h, values are per cent of control
OVCAR-8 = assay: Growth inhibition of human OVCAR8 cells at 10 uM after 48 hrs by sulforhodamine B assay; conditions: OVCAR-8, 48 h, read-out: GI
CCRF-CEM = assay: Growth inhibition of human CCRF-CEM cells at 10 uM after 48 hrs by sulforhodamine B assay; conditions: values are per cent of control
K562 = assay: Growth inhibition of human K562 cells at 10 uM after 48 hrs by sulforhodamine B assay; conditions: K562, 48 h, values are per cent of control
RPMI-8226 = assay: Growth inhibition of human RPMI8226 cells at 10 uM after 48 hrs by sulforhodamine B assay; conditions: RPMI-8226, 48 h, read-out: GI
786-0 = assay: Growth inhibition of human 786-0 cells at 10 uM after 48 hrs by sulforhodamine B assay; conditions: 786-0, 48 h, values are per cent of control
A498 = assay: Growth inhibition of human A498 cells at 10 uM after 48 hrs by sulforhodamine B assay; conditions: A498, 48 h, values are per cent of control
ACHN = assay: Growth inhibition of human ACHN cells at 10 uM after 48 hrs by sulforhodamine B assay; conditions: values are per cent of control
CAKI-1 = assay: Growth inhibition of human Caki1 cells at 10 uM after 48 hrs by sulforhodamine B assay; conditions: CAKI-1, 48 h, values are per cent of control
SN12C = assay: Growth inhibition of human SN12C cells at 10 uM after 48 hrs by sulforhodamine B assay; conditions: values are per cent of control
Rattus norvegicus [2] = assay: Antiinflammatory activity against carrageenan-induced paw edema in Wister albino rat assessed as inhibition of edema at 50 mg/kg, ip administered 1 hr prior to carrageenan challenge measured after 4 hrs relative to control; conditions: route intraperitoneal
LOX IMVI = assay: Growth inhibition of human LOXIMVI cells at 10 uM after 48 hrs by sulforhodamine B assay; conditions: values are per cent of control
Malme-3M = assay: Growth inhibition of human MALME-3M cells at 10 uM after 48 hrs by sulforhodamine B assay; conditions: values are per cent of control
SK-MEL-2 = assay: Growth inhibition of human SK-MEL-2 cells at 10 uM after 48 hrs by sulforhodamine B assay; conditions: SK-MEL-2, 48 h, read-out: GI
SK-MEL-28 = assay: Growth inhibition of human SK-MEL-28 cells at 10 uM after 48 hrs by sulforhodamine B assay; conditions: SK-MEL-28, 48 h, values are per cent of control
UACC-257 = assay: Growth inhibition of human UACC257 cells at 10 uM after 48 hrs by sulforhodamine B assay; conditions: UACC-257, 48 h, values are per cent of control
UACC-62 = assay: Growth inhibition of human UACC62 cells at 10 uM after 48 hrs by sulforhodamine B assay; conditions: UACC-62, 48 h, values are per cent of control
PC-3 = assay: Growth inhibition of human PC3 cells at 10 uM after 48 hrs by sulforhodamine B assay; conditions: PC-3, 48 h, values are per cent of control
SF-295 = assay: Growth inhibition of human SF295 cells at 10 uM after 48 hrs by sulforhodamine B assay; conditions: SF-295, 48 h, values are per cent of control
SF-539 = assay: Growth inhibition of human SF539 cells at 10 uM after 48 hrs by sulforhodamine B assay; conditions: SF-539, 48 h, values are per cent of control
SNB-75 = assay: Growth inhibition of human SNB75 cells at 10 uM after 48 hrs by sulforhodamine B assay; conditions: SNB-75, 48 h, values are per cent of control
U-251 = assay: Growth inhibition of human U251 cells at 10 uM after 48 hrs by sulforhodamine B assay; conditions: U-251, 48 h, values are per cent of control
Rattus norvegicus [3] = assay: Antiinflammatory activity against carrageenan-induced paw edema in Wister albino rat assessed as inhibition of edema at 50 mg/kg, ip administered 1 hr prior to carrageenan challenge measured after 1 hr relative to control; conditions: route intraperitoneal
Rattus norvegicus [4] = assay: Antiinflammatory activity against carrageenan-induced paw edema in Wister albino rat assessed as inhibition of edema at 50 mg/kg, ip administered 1 hr prior to carrageenan challenge measured after 3 hrs relative to control; conditions: route intraperitoneal

SMILES	growth, % of control at 10 µM (HOP-62) [%]	inhibition of growth at 10 µM (HOP-92) [%]	growth, % of control at 10 µM (NCI-H322M) [%]	growth, % of control at 10 µM (NCI-H460) [%]	growth, % of control at 10 µM (NCI-H522) [%]	growth, % of control at 10 µM (HCT-116) [%]	growth, % of control at 10 µM (HCT-15) [%]	growth, % of control at 10 µM (HT-29) [%]	growth, % of control at 10 µM (KM12) [%]	growth, % of control at 10 µM [1] [%]	growth, % of control at 10 µM (MCF7) [%]	growth, % of control at 10 µM (MDA-MB-231) [%]	growth, % of control at 10 µM (MDA-MB-435) [%]	growth, % of control at 10 µM (OVCAR-4) [%]	growth, % of control at 10 µM (OVCAR-5) [%]	inhibition of growth at 10 µM (OVCAR-8) [%]	growth, % of control at 10 µM (CCRF-CEM) [%]	growth, % of control at 10 µM (K562) [%]	inhibition of growth at 10 µM (RPMI-8226) [%]	growth, % of control at 10 µM (786-0) [%]	further results
[3H]N1C(=O)[C@@]2(c3ccccc31)N(C)C[C@@H](c1cccs1)[C@@]21Cc2ccccc2C1=O	110	72.9	98.9	109	92.3	92.2	103	99.6	94.3	69.8	109	78.3	115	93	98.8	60.2	91.4	93.7	89.1	111	growth, % of control at 10 µM (A498): 102%; growth, % of control at 10 µM (ACHN): 97.9%; growth, % of control at 10 µM (CAKI-1): 106%; growth, % of control at 10 µM (SN12C): 99.6%; inhibition in vivo at 50 mg/kg (Rattus norvegicus [2]): 20%; growth, % of control at 10 µM (LOX IMVI): 80%; growth, % of control at 10 µM (Malme-3M): 93.5%; inhibition of growth at 10 µM (SK-MEL-2): 6.58%; growth, % of control at 10 µM (SK-MEL-28): 117%; growth, % of control at 10 µM (UACC-257): 65%; growth, % of control at 10 µM (UACC-62): 82%; growth, % of control at 10 µM (PC-3): 73%; growth, % of control at 10 µM (SF-295): 105%; growth, % of control at 10 µM (SF-539): 109%; growth, % of control at 10 µM (SNB-75): 81%; growth, % of control at 10 µM (U-251): 100%; inhibition in vivo at 50 mg/kg (Rattus norvegicus [3]): 49.9%; inhibition in vivo at 50 mg/kg (Rattus norvegicus [4]): 32.6%
[3H]C([3H])([3H])N1C(=O)[C@@]2(c3ccccc31)N(C)C[C@@H](c1cccs1)[C@@]21Cc2ccccc2C1=O	99.9	69.2	89.3	107	94.9	108	108	97.5	107	21.1	103	84.3	111	100	102	64	90.5	72.5	87.9	106	growth, % of control at 10 µM (A498): 103%; growth, % of control at 10 µM (ACHN): 98.4%; growth, % of control at 10 µM (CAKI-1): 106%; growth, % of control at 10 µM (SN12C): 105%; inhibition in vivo at 50 mg/kg (Rattus norvegicus [2]): 12.9%; growth, % of control at 10 µM (LOX IMVI): 85.3%; growth, % of control at 10 µM (Malme-3M): 123%; inhibition of growth at 10 µM (SK-MEL-2): -5.11%; growth, % of control at 10 µM (SK-MEL-28): 105%; growth, % of control at 10 µM (UACC-257): 52.6%; growth, % of control at 10 µM (UACC-62): 75.3%; growth, % of control at 10 µM (PC-3): 70.3%; growth, % of control at 10 µM (SF-295): 60.4%; growth, % of control at 10 µM (SF-539): 112%; growth, % of control at 10 µM (SNB-75): 79%; growth, % of control at 10 µM (U-251): 102%; inhibition in vivo at 50 mg/kg (Rattus norvegicus [3]): 33%; inhibition in vivo at 50 mg/kg (Rattus norvegicus [4]): 9.1%
